Data as given in article PMC12326981, “Novel C5α-substituted carbapenems enhance Mycobacterium abscessus killing via selective target binding and reduced hydrolysis by BlaMab” (Antimicrobial Agents and Chemotherapy, 2025).
“And” between values parts separate entries of the source, which are not always exact repeats. Equal values may be shown once. Read-outs that look alike come from different tables or passages of the source.

Columns and labels:
[1] = biological target: LDT3 (Mycobacteroides abscessus, UniProt B1MHQ4); test: Mass spectrometric analysis of acyl-enzyme adducts; assay type: binding, Mycobacterium abscessus; conditions: LDT3 (44,795); 1:10 molar ratio, 2 h; accuracy ±5 Da
Description: (§1) Truncated sequences of BlaMab (Δ1–30 blaMab), LDT1–5, DDC, PBP B, PonA2, and PBP-lipo (Δ1–41) were synthesized by Celtek Biosciences (Franklin, TN) and cloned into the pET28(a)+ vector. Purification of LDTs and PBPs was carried out as previously described ([15], [16], [20]). Briefly, clones were transformed into Escherichia coli BL21 (DE3), and protein expression was induced with 0.25 mM isopropyl β-d-1-thiogalactopyranoside. Cell pellets were resuspended in buffer containing 50 mM Tris (pH 8.0), 400 mM sodium chloride, and 1 mM Tris(2-carboxyethyl)phosphine hydrochloride and lysed by sonication. After centrifugation, the supernatant was purified using a His Prep FF column and eluted with 500 mM imidazole.
(§2) The purified proteins were incubated at room temperature with JDB/NA-1-157 and JDB/NA-1-208 at a molar ratio of 1:10 for 2 h. A quadrupole time-of-flight mass spectrometer (Waters Synapt-G2-Si) with electrospray ionization and a Waters Acquity H-Class UPLC system were used to analyze the samples. The liquid chromatography conditions were as follows: a BEH C18 column (1.7 µm, 2.1 × 50 mm) and a mobile phase consisting of 0.1% formic acid in water and 0.1% formic acid in acetonitrile, with a gradient elution from 10% to 90% acetonitrile over 11 min at a flow rate of 0.5 mL/min. The MS settings were optimized with a capillary voltage of 3 kV, a sampling cone voltage of 35 V, and source and desolvation temperatures of 100°C and 500°C, respectively. Gas flow rates were 100 L/h for the cone and 800 L/h for desolvation. The mass accuracy was maintained at ±5 Da.

[2] = biological target: LDT4 (Mycobacteroides abscessus, UniProt B1MKW1); test: Mass spectrometric analysis of acyl-enzyme adducts; assay type: binding, Mycobacterium abscessus; conditions: LDT4 (32,567); 1:10 molar ratio, 2 h; accuracy ±5 Da
Description: as §1, §2

[3] = system: Mab ATCC 19977; test: MIC testing against Mab ATCC 19977, single agent and combinations; assay type: cell-based, Mycobacterium abscessus
Description: MICs were determined in duplicate following Clinical Laboratory Standards Institute ([52]) guidelines using Middlebrook 7H9 broth supplemented with 10% (vol/vol) oleic acid-albumin-dextrose-catalase (OADC) and 0.05% (vol/vol) Tween 80, with an inoculum of 5 × 10⁵ CFU/mL. MIC testing of two C5α-substituted carbapenems was conducted both individually and in combination with cephalosporins (cefuroxime and ceftaroline), penicillins (amoxicillin), or BLIs (avibactam or durlobactam + sulbactam). Avibactam, durlobactam, cefuroxime, ceftaroline, and amoxicillin were fixed at concentrations of 4, 1, 2, 4, and 4 mg/L, respectively. […] The MIC was defined as the lowest antibiotic concentration that inhibited visible bacterial growth following 48 h of incubation at 30°C.

[4] = Thermal stability in 7H9 broth at 30°C; conditions: for Degradation percentage / degradation after 24 h: 7H9 broth, 30°C; for Degradation percentage: 24 h; for degradation after 24 h: 50 mg/L and 10 mg/L (Fig. S2); for half-life: buffer
Description: The stability of the two compounds in 7H9 broth was assessed at 30°C at drug concentrations of 10, 50, and 100 mg/L, with each condition tested in triplicate. Absorbance at 240 nm was measured every 2 h over a 24 h period using a BioTek Synergy2 multimode reader, with data analyzed via Gen5 software to monitor degradation or changes in stability. To evaluate the impact of thermal instability, MIC tests were performed using Mab ATCC 19977. Compounds were tested at time points of 0 h (no incubation) and 6, 24, and 48 h of incubation at 30°C. Imipenem and meropenem, known to be thermally unstable β-lactams, were included as positive controls. The MIC results were recorded after 48 h of incubation. Detailed MIC testing protocols were identical to those described below.

[5] = biological target: PonA2 (Mycobacteroides abscessus, UniProt B1MFV7); test: Apparent inhibition constant (nitrocefin, Dixon plot); assay type: biochemical, Mycobacterium abscessus; conditions: Ki,app
Description: (§3) Steady-state kinetic studies with JDB/NA-1-157 and JDB/NA-1-208 were performed using purified LDTs and PBPs, including LDT1–5, PBP-B, PBP-lipo, and D,D-carboxypeptidase. The assays were conducted on a BioTek Synergy2 multimode reader equipped with Gen5 software. To determine the Michaelis constant (Km^NCF) for each LDT and PBP, a wide range of NCF concentrations was tested, while the enzyme concentrations were fixed. Absorbance changes at 482 nm were monitored over 10 min. Steady-state kinetic parameters (Vmax and Km) were derived by fitting the experimental data to the Henri–Michaelis–Menten equation using nonlinear least-squares regression in GraphPad Prism version 9. The reaction velocity (v) at a given substrate concentration ([S]) was calculated using equation 2: […]
(§4) The apparent inhibition constants (Ki,app) for JDB/NA-1-157 and JDB/NA-1-208 were determined under the following conditions: an NCF concentration of 5 × Km, fixed concentrations of LDT or PBP enzymes, and varying concentrations of JDB/NA-1-157 and JDB/NA-1-208. Absorbance changes at 482 nm were monitored over a 30 min period for each inhibitor concentration. The data were linearized using a Dixon plot, which involves plotting the reciprocal of the absorbance change (1/ΔA) against the concentrations of JDB/NA-1-157 or JDB/NA-1-208. Apparent Ki,app values were derived from the intersection points on the Dixon plot and were subsequently corrected for substrate concentration and enzyme affinity using equation 3:
(§5) (3) Ki,app=observed Ki,app/1+[NCF]/Km NCF.

[6] = biological target: LDT1 (Mycobacteroides abscessus, UniProt B1MDC1); test: as above; assay type: biochemical, Mycobacterium abscessus; conditions: Ki,app
Description: as §3, §4, §5

[7] = biological target: LDT2 (Mycobacteroides abscessus, UniProt B1MMQ4); test: as above; assay type: biochemical, Mycobacterium abscessus; conditions: Ki,app
Description: as §3, §4, §5

[8] = biological target: T1, PBP-lipo (Mycobacteroides abscessus, UniProt B1MDC3); test: Bocillin-FL competitive binding assay; conditions: Bocillin-FL competition, 1:10 molar ratio
T1 construct: made in house; host or cells: Escherichia coli BL21 (DE3)
Description: The binding of JDB/NA-1-157 and JDB/NA-1-208 to PBP-lipo was assessed using a Bocillin-FL competitive assay as previously described ([25]). Briefly, purified PBP-lipo and the compounds (at a 1:10 molar ratio) were incubated in a buffer containing 10 mM sodium phosphate (pH 7.4) and 150 mM NaCl for 2 h at room temperature, followed by additional incubation with 1 µM Bocillin FL for 4 h at 37°C. Samples were boiled and analyzed by SDS-PAGE. The PBP-lipo:Bocilli complexes were detected via fluorescence at 488 nm using an Azure 300 gel imaging system. Band intensity was quantified using GelAnalyzer software.

[9] = Mycobacteroides abscessus, ATCC19977, 48 h, alone (single agent), read-out: MIC

Sequence of PonA2 (B1MFV7 entry or part of it): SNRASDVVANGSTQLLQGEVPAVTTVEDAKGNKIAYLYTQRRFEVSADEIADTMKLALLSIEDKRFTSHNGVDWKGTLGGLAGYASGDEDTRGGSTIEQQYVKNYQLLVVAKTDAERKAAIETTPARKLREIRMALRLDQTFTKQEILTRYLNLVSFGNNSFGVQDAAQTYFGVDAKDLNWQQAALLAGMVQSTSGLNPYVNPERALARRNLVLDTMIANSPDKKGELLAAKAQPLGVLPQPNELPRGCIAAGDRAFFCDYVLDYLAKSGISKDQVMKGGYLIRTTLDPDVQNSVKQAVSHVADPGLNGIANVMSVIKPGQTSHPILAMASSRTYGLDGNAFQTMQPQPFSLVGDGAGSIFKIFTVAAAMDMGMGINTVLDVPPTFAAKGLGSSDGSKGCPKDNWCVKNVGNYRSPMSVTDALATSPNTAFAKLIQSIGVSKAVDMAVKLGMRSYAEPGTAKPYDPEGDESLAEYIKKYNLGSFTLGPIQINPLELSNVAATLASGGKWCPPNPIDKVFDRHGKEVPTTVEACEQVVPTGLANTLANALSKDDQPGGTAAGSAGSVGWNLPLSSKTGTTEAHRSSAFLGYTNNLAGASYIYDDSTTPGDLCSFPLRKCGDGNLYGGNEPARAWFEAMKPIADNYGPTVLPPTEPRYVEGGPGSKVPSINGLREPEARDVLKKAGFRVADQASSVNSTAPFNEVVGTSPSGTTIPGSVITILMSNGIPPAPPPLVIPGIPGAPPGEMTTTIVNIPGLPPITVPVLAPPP
Sequence of LDT2 (B1MMQ4 entry or part of it): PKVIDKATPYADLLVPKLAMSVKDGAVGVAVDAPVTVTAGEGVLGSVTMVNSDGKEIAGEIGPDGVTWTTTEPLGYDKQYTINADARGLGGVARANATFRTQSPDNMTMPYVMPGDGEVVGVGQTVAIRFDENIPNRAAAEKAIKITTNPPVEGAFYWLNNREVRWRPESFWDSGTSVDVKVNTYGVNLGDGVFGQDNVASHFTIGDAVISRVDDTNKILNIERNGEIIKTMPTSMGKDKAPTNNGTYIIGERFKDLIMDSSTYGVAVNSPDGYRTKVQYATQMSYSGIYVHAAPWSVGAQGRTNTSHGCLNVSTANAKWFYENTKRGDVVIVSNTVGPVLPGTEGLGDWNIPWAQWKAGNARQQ
Sequence of LDT3 (B1MHQ4 entry or part of it): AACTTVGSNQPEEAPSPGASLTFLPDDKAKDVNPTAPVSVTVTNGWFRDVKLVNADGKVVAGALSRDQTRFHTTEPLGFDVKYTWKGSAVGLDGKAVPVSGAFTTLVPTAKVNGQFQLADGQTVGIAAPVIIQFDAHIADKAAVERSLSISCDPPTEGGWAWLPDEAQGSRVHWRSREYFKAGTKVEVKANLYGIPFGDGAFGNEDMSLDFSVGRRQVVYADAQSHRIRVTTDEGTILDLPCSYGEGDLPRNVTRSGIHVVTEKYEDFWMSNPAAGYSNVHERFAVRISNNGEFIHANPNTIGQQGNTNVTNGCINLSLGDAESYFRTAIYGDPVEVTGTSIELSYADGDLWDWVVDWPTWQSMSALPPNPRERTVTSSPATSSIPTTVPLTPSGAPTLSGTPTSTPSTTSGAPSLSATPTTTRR
Sequence of LDT4 (B1MKW1 entry or part of it): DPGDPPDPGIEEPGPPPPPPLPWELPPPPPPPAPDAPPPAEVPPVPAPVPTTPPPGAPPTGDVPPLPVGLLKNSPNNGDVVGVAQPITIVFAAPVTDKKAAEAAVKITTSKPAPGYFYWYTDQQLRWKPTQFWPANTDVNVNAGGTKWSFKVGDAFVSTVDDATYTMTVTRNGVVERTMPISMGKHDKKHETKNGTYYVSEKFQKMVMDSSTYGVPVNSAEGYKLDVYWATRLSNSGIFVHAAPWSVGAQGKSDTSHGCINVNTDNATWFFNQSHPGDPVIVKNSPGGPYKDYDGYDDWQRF
Sequence of LDT1 (B1MDC1 entry or part of it): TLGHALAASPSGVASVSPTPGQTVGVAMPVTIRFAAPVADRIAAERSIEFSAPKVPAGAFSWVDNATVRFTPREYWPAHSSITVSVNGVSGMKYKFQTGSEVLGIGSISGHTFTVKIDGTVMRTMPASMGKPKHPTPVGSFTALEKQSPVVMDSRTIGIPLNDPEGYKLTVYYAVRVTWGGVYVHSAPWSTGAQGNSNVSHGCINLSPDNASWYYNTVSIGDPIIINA
T1 sequence (B1MDC3 entry or part of it): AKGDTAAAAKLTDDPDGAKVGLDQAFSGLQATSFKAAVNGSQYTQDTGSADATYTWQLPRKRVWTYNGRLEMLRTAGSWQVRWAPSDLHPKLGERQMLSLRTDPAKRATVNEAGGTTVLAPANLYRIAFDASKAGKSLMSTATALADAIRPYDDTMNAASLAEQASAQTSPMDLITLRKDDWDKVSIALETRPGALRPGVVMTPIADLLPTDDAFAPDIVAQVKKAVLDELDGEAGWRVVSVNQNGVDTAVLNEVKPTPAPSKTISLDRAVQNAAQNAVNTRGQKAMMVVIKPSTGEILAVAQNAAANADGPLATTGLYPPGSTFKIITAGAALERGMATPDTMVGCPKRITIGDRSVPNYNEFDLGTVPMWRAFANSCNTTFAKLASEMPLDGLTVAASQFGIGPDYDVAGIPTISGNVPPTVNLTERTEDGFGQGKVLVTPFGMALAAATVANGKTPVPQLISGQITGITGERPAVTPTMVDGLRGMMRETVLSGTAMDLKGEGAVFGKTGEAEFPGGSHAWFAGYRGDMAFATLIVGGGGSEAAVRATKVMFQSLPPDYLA

Row | Compound | Mass of protein after incubation (mass shift) [1] | Mass of protein after incubation (mass shift) [2] | MIC ([3]; +AMX (4 mg/L) + AVI (4 mg/L)) | MIC ([3]; +AVI (4 mg/L)) | MIC ([3]; +CFT (4 mg/L)) | MIC ([3]; +CXM (2 mg/L)) | MIC ([3]; +DUR (1 mg/L)) | MIC [3, 9] | fold reduction in MIC on combination ([3]; combined with cefuroxime, ceftaroline, or amoxicillin (with avibactam), Table 1, Fig. 3) | Degradation percentage ([4]; 10 mg/L) | degradation after 24 h [4] | Degradation percentage ([4]; 50 mg/L) | Degradation percentage ([4]; 100 mg/L) | half-life [4] | Ki [5] | Ki [6] | Ki [7] | binding to PBP-lipo [8]
1 | C[C@@H](O)[C@H]1C(=O)N2C(C(=O)O)=C(S[C@@H]3CN[C@H](C(=O)N(C)C)C3)C[C@]12C [JDB/NA-1-157] | 45,178 (+383) Da | 32,950 (+383) Da | 0.125 mg/L | 0.5 mg/L | 0.125 mg/L | 0.125 mg/L | 0.25 mg/L | 0.5 mg/L | ≤ 4 fold | 11.9% | 16% | 16.2% | 16% and 16.6% | 2.08 days | 7.82 nM | 7.98 µM | 130 nM | form acyl-enzyme complexes
2 | CC[C@]12CC(S[C@@H]3CN[C@H](C(=O)N(C)C)C3)=C(C(=O)O)N1C(=O)[C@@H]2[C@@H](C)O [JDB/NA-1-208] | 45,194 (+397) Da | 32,964 (+397) Da | ≤0.0313 mg/L | 32 mg/L | 4 mg/L | 8 mg/L | 32 mg/L | 32 mg/L |  | 0.6% | approximately 10% | 10.5% |  | 2.75 days | 352 nM | 1.11 µM | 166 nM | lacks binding
